Tests used:
Type in all cases: in vivo
[1] = system: Digitaria sanguinalis; experiment: Indoor herbicide activity determination, post-emergence (stem and leaf spray at 2-4 leaf stage); conditions: 504 h, 60 g a.i./ha, determined 21 days later, read-out: Inhibition rate of fresh weight, Digitaria sanguinalis
Excerpt: (§1) The testing method for herbicide activity of the compound of the present invention was as follows:
(§2) Post-emergence: an appropriate quantity of seeds of gramineous weeds (Echinochloa crusgalli, Eleusine indica, Digitaria sanguinalis, Alopecurus japonicus, Beckmannia syzigachne, Leptochloa chinensis, Polypogon fugax, Alopecurus aequalis, Lolium multiflorum, Poa annua, Aegilops tauschii, Avena fatua, Alopecurus myosuroides, Alopecurus japonicus and Alopecurus aequalis), broad-leaved weeds (Eclipta prostrata, Amaranthus retroflexus, Rorippa indica, Malachium aquaticum, Veronica polita, Conyza canadensis, Sesbania cannabina, Sagittariatrifolia and Schoenoplectiella juncoides), and Cyperus iria were sown in plastic pots having a diameter of 7 cm and holes at the bottom and filled with nutrient soil (sandy soil, pH 6.1, organic matter 1%) respectively, the seeds were covered with an appropriate amount of soil after being sown, then the soil was wetted with water from the bottom, the seeds were cultured in a constant-temperature illuminated culture room until a 2-4 leaf stage, and stems and leaves underwent spray treatment. After the treatment, the test materials were placed in a laboratory and cultured in the constant-temperature illuminated culture room after the liquid was naturally dry in the shade, and results were determined 21 days later. Inhibition rate of fresh weight % = (1−(fresh weight of treated plants)/(fresh weight of control plants)) × 100% [formula]

[2] = system: Eclipta prostrata; experiment: as above; conditions: 504 h, 60 g a.i./ha, determined 21 days later, read-out: Inhibition rate of fresh weight, Eclipta prostrata
Excerpt: as §1, §2

[3] = system: Cyperus iria; experiment: as above; conditions: 504 h, 60 g a.i./ha, determined 21 days later, read-out: Inhibition rate of fresh weight, Cyperus iria
Excerpt: as §1, §2

[4] = system: Alopecurus myosuroides; experiment: Indoor herbicide activity determination, Seed Treatment; pre-emergence (soil spray); conditions: Dosage 240 g a.i./ha
How it was run: (§3)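 Readout is percent inhibition of fresh weight relative to control plants, determined 21 days after treatment. Soil was sprayed one day after sowing, in a spray tower at 300 mm height and 390 mL/min nozzle flow, onto sandy soil of pH 6.1 with 1% organic matter.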

[5] = system: Leptochloa chinensis; experiment: as above; conditions: Dosage 240 g a.i./ha
How it was run: as §3

[6] = system: Eleusine indica; experiment: as above; conditions: Dosage 240 g a.i./ha
How it was run: as §3

[7] = system: Lolium multiflorum; experiment: as above; conditions: Dosage 240 g a.i./ha
How it was run: as §3

[8] = system: Alopecurus japonicus; experiment: as above; conditions: Dosage 240 g a.i./ha
How it was run: as §3

SMILES: COC(=O)[C@H]1C[C@@H](NC(=O)C2(C)CC(c3cc(Cl)cc(Cl)c3)=NO2)C1 (mixture of isomers) [I-139]
- inhibition at 60 g/ha [1]: 80 to 100%
- inhibition at 60 g/ha [2]: 40 to 60%
- inhibition at 60 g/ha [3]: 80 to 100%
- Herbicidal activities, Alopecurus myosuroides (inhibition rate class) [4]: A (A indicates that the inhibition rate was greater than or equal to 80% to 100%)
- Herbicidal activities, Leptochloa chinensis (inhibition rate class) [5]: A (A indicates that the inhibition rate was greater than or equal to 80% to 100%)
- Herbicidal activities, Eleusine indica (inhibition rate class) [6]: A (A indicates that the inhibition rate was greater than or equal to 80% to 100%)
- Herbicidal activities, Lolium multiflorum (inhibition rate class) [7]: A (A indicates that the inhibition rate was greater than or equal to 80% to 100%)
- Herbicidal activities, Alopecurus japonicus (inhibition rate class) [8]: A (A indicates that the inhibition rate was greater than or equal to 80% to 100%)

SMILES: CC1(C(=O)N[C@H]2C[C@@H](C(=O)O)C2)CC(c2cc(F)cc(OC(F)(F)F)c2)=NO1 (mixture of isomers) [I-157]
- inhibition at 60 g/ha [1]: 80 to 100%
- inhibition at 60 g/ha [2]: 60 to 80%
- inhibition at 60 g/ha [3]: 60 to 80%
- Herbicidal activities, Alopecurus myosuroides (inhibition rate class) [4]: A (A indicates that the inhibition rate was greater than or equal to 80% to 100%)
- Herbicidal activities, Leptochloa chinensis (inhibition rate class) [5]: A (A indicates that the inhibition rate was greater than or equal to 80% to 100%)
- Herbicidal activities, Eleusine indica (inhibition rate class) [6]: A (A indicates that the inhibition rate was greater than or equal to 80% to 100%)
- Herbicidal activities, Lolium multiflorum (inhibition rate class) [7]: A (A indicates that the inhibition rate was greater than or equal to 80% to 100%)
- Herbicidal activities, Alopecurus japonicus (inhibition rate class) [8]: A (A indicates that the inhibition rate was greater than or equal to 80% to 100%)

SMILES: COC(=O)[C@H]1C[C@@H](NC(=O)C2(C)CC(c3cc(F)cc(OC(F)(F)F)c3)=NO2)C1 (mixture of isomers) [I-159]
- inhibition at 60 g/ha [1]: 80 to 100%
- inhibition at 60 g/ha [2]: 60 to 80%
- inhibition at 60 g/ha [3]: 60 to 80%
- Herbicidal activities, Alopecurus myosuroides (inhibition rate class) [4]: A (A indicates that the inhibition rate was greater than or equal to 80% to 100%)
- Herbicidal activities, Leptochloa chinensis (inhibition rate class) [5]: A (A indicates that the inhibition rate was greater than or equal to 80% to 100%)
- Herbicidal activities, Eleusine indica (inhibition rate class) [6]: A (A indicates that the inhibition rate was greater than or equal to 80% to 100%)
- Herbicidal activities, Lolium multiflorum (inhibition rate class) [7]: A (A indicates that the inhibition rate was greater than or equal to 80% to 100%)
- Herbicidal activities, Alopecurus japonicus (inhibition rate class) [8]: A (A indicates that the inhibition rate was greater than or equal to 80% to 100%)

SMILES: O=C(N[C@H]1C[C@@H](C(=O)O)C1)C1(C(F)(F)F)CC(c2cc(F)cc(Cl)c2)=NO1 (mixture of isomers) [I-223]
- inhibition at 60 g/ha [1]: 80 to 100%
- inhibition at 60 g/ha [2]: 60 to 80%
- inhibition at 60 g/ha [3]: 80 to 100%
- Herbicidal activities, Alopecurus myosuroides (inhibition rate class) [4]: A (A indicates that the inhibition rate was greater than or equal to 80% to 100%)
- Herbicidal activities, Leptochloa chinensis (inhibition rate class) [5]: A (A indicates that the inhibition rate was greater than or equal to 80% to 100%)
- Herbicidal activities, Eleusine indica (inhibition rate class) [6]: A (A indicates that the inhibition rate was greater than or equal to 80% to 100%)
- Herbicidal activities, Lolium multiflorum (inhibition rate class) [7]: A (A indicates that the inhibition rate was greater than or equal to 80% to 100%)
- Herbicidal activities, Alopecurus japonicus (inhibition rate class) [8]: A (A indicates that the inhibition rate was greater than or equal to 80% to 100%)

SMILES: COC(=O)[C@H]1C[C@@H](NC(=O)C2(C(F)(F)F)CC(c3cc(F)cc(Cl)c3)=NO2)C1 (mixture of isomers) [I-225]
- inhibition at 60 g/ha [1]: 80 to 100%
- inhibition at 60 g/ha [2]: 60 to 80%
- inhibition at 60 g/ha [3]: 80 to 100%
- Herbicidal activities, Alopecurus myosuroides (inhibition rate class) [4]: A (A indicates that the inhibition rate was greater than or equal to 80% to 100%)
- Herbicidal activities, Leptochloa chinensis (inhibition rate class) [5]: A (A indicates that the inhibition rate was greater than or equal to 80% to 100%)
- Herbicidal activities, Eleusine indica (inhibition rate class) [6]: A (A indicates that the inhibition rate was greater than or equal to 80% to 100%)
- Herbicidal activities, Lolium multiflorum (inhibition rate class) [7]: A (A indicates that the inhibition rate was greater than or equal to 80% to 100%)
- Herbicidal activities, Alopecurus japonicus (inhibition rate class) [8]: A (A indicates that the inhibition rate was greater than or equal to 80% to 100%)

SMILES: O=C(N[C@H]1C[C@@H](C(=O)O)C1)C1(C(F)(F)F)CC(c2cc(Cl)cc(Cl)c2)=NO1 (relative stereo) [I-229]
- inhibition at 60 g/ha [1]: 80 to 100%
- inhibition at 60 g/ha [2]: 60 to 80%
- inhibition at 60 g/ha [3]: 80 to 100%
- Herbicidal activities, Alopecurus myosuroides (inhibition rate class) [4]: A (A indicates that the inhibition rate was greater than or equal to 80% to 100%)
- Herbicidal activities, Leptochloa chinensis (inhibition rate class) [5]: A (A indicates that the inhibition rate was greater than or equal to 80% to 100%)
- Herbicidal activities, Eleusine indica (inhibition rate class) [6]: A (A indicates that the inhibition rate was greater than or equal to 80% to 100%)
- Herbicidal activities, Lolium multiflorum (inhibition rate class) [7]: A (A indicates that the inhibition rate was greater than or equal to 80% to 100%)
- Herbicidal activities, Alopecurus japonicus (inhibition rate class) [8]: A (A indicates that the inhibition rate was greater than or equal to 80% to 100%)

SMILES: COC(=O)[C@H]1C[C@@H](NC(=O)C2(C(F)(F)F)CC(c3cc(Cl)cc(Cl)c3)=NO2)C1 (relative stereo) [I-231]
- inhibition at 60 g/ha [1]: 80 to 100%
- inhibition at 60 g/ha [2]: 60 to 80%
- inhibition at 60 g/ha [3]: 80 to 100%
- Herbicidal activities, Alopecurus myosuroides (inhibition rate class) [4]: A (A indicates that the inhibition rate was greater than or equal to 80% to 100%)
- Herbicidal activities, Leptochloa chinensis (inhibition rate class) [5]: A (A indicates that the inhibition rate was greater than or equal to 80% to 100%)
- Herbicidal activities, Eleusine indica (inhibition rate class) [6]: A (A indicates that the inhibition rate was greater than or equal to 80% to 100%)
- Herbicidal activities, Lolium multiflorum (inhibition rate class) [7]: A (A indicates that the inhibition rate was greater than or equal to 80% to 100%)
- Herbicidal activities, Alopecurus japonicus (inhibition rate class) [8]: A (A indicates that the inhibition rate was greater than or equal to 80% to 100%)

SMILES: O=C(N[C@H]1C[C@@H](C(=O)O)C1)C1(C(F)(F)F)CC(c2cc(F)cc(C(F)(F)F)c2)=NO1 (relative stereo) [I-241]
- inhibition at 60 g/ha [1]: 80 to 100%
- inhibition at 60 g/ha [2]: 60 to 80%
- inhibition at 60 g/ha [3]: 80 to 100%
- Herbicidal activities, Alopecurus myosuroides (inhibition rate class) [4]: A (A indicates that the inhibition rate was greater than or equal to 80% to 100%)
- Herbicidal activities, Leptochloa chinensis (inhibition rate class) [5]: A (A indicates that the inhibition rate was greater than or equal to 80% to 100%)
- Herbicidal activities, Eleusine indica (inhibition rate class) [6]: A (A indicates that the inhibition rate was greater than or equal to 80% to 100%)
- Herbicidal activities, Lolium multiflorum (inhibition rate class) [7]: A (A indicates that the inhibition rate was greater than or equal to 80% to 100%)
- Herbicidal activities, Alopecurus japonicus (inhibition rate class) [8]: A (A indicates that the inhibition rate was greater than or equal to 80% to 100%)

SMILES: COC(=O)[C@H]1C[C@@H](NC(=O)C2(C(F)(F)F)CC(c3cc(F)cc(C(F)(F)F)c3)=NO2)C1 (relative stereo) [I-243]
- inhibition at 60 g/ha [1]: 80 to 100%
- inhibition at 60 g/ha [2]: 60 to 80%
- inhibition at 60 g/ha [3]: 80 to 100%
- Herbicidal activities, Alopecurus myosuroides (inhibition rate class) [4]: A (A indicates that the inhibition rate was greater than or equal to 80% to 100%)
- Herbicidal activities, Leptochloa chinensis (inhibition rate class) [5]: A (A indicates that the inhibition rate was greater than or equal to 80% to 100%)
- Herbicidal activities, Eleusine indica (inhibition rate class) [6]: A (A indicates that the inhibition rate was greater than or equal to 80% to 100%)
- Herbicidal activities, Lolium multiflorum (inhibition rate class) [7]: A (A indicates that the inhibition rate was greater than or equal to 80% to 100%)
- Herbicidal activities, Alopecurus japonicus (inhibition rate class) [8]: A (A indicates that the inhibition rate was greater than or equal to 80% to 100%)

SMILES: O=C(N[C@H]1C[C@@H](C(=O)O)C1)C1(C(F)(F)F)CC(c2cc(Cl)cc(C(F)(F)F)c2)=NO1 (relative stereo) [I-245]
- inhibition at 60 g/ha [1]: 80 to 100%
- inhibition at 60 g/ha [2]: 60 to 80%
- inhibition at 60 g/ha [3]: 80 to 100%
- Herbicidal activities, Alopecurus myosuroides (inhibition rate class) [4]: A (A indicates that the inhibition rate was greater than or equal to 80% to 100%)
- Herbicidal activities, Leptochloa chinensis (inhibition rate class) [5]: A (A indicates that the inhibition rate was greater than or equal to 80% to 100%)
- Herbicidal activities, Eleusine indica (inhibition rate class) [6]: A (A indicates that the inhibition rate was greater than or equal to 80% to 100%)
- Herbicidal activities, Lolium multiflorum (inhibition rate class) [7]: A (A indicates that the inhibition rate was greater than or equal to 80% to 100%)
- Herbicidal activities, Alopecurus japonicus (inhibition rate class) [8]: A (A indicates that the inhibition rate was greater than or equal to 80% to 100%)

Source: patent EP4722201A1, “3-PHENYLISOXAZOLINE-5-CARBOXAMIDE COMPOUND, AND PREPARATION METHOD THEREFOR, HERBICIDAL COMPOSITION THEREOF AND USE THEREOF” (Jiangsu Flag Chemical Industry Co., Ltd, priority 2023, dated 2024)
